Data taken from ChEMBL document CHEMBL5214886, “An appraisal of anti-mycobacterial activity with structure-activity relationship of piperazine and its analogues: A review” (Eur J Med Chem, 2021).
≈ marks a conversion by molar mass, not a printed value. Where “and” joins values, the source holds several entries; their conditions need not be identical. Equal entries are not always repeated.

Assays:
[1] = system: Mycobacterium tuberculosis; experiment: Antimycobacterial activity against Mycobacterium tuberculosis H37Rv assessed as reduction in bacterial growth incubated for 21 days by broth dilution assay; type: functional; conditions: 504 h, time 21 day
[2] = system: Mycobacterium tuberculosis; experiment: Antimycobacterial activity against Mycobacterium tuberculosis H37Rv assessed as reduction in bacterial growth and measured after 7 days by resazurin assay; type: functional, organism-based; conditions: 168 h
[3] = system: Mycobacterium tuberculosis; experiment: Antimycobacterial activity against Mycobacterium tuberculosis H37Rv assessed as reduction in bacterial growth by MABA analysis; type: functional
[4] = system: Mycobacterium tuberculosis; experiment: Antimycobacterial activity against Mycobacterium tuberculosis H37Rv assessed as reduction in bacterial growth by BACTEC MGIT method; type: functional
[5] = system: Mycobacterium tuberculosis; experiment: Antimycobacterial activity against Mycobacterium tuberculosis H37Rv assessed as reduction in bacterial growth by agar dilution method; type: functional
[6] = system: Mycobacterium tuberculosis; experiment: Antimycobacterial activity against Mycobacterium tuberculosis H37Rv assessed as reduction in bacterial colonies by colony counting method; type: functional
[7] = system: Mycobacterium tuberculosis; experiment: Antimycobacterial activity against Mycobacterium tuberculosis H37Rv ATCC 27294 assessed as reduction in bacterial growth; type: functional
[8] = system: Mycobacterium tuberculosis; experiment: Antimycobacterial activity against Mycobacterium tuberculosis H37Rv ATCC 27294 assessed as reduction in bacterial growth incubated for 7 days by MABA analysis; type: functional; conditions: H37Rv ATCC 27294, 168 h, time 7 day
[9] = system: Mycobacterium tuberculosis; experiment: Antimycobacterial activity against Mycobacterium tuberculosis H37Rv ATCC 27294 assessed as reduction in bacterial growth incubated for 72 hrs by two-fold dilution method; type: functional
[10] = system: Mycobacterium tuberculosis; experiment: Antimycobacterial activity against Mycobacterium tuberculosis H37Rv assessed as reduction in bacterial growth by MABA assay; type: functional
[11] = system: Mycobacterium tuberculosis; experiment: Antimycobacterial activity against Mycobacterium tuberculosis H37Rv ATCC 27294 assessed as reduction in bacterial growth and measured after 21 days by radiometric BACTEC method; type: functional; conditions: H37Rv ATCC 27294, 504 h, time 21 day
[12] = system: Mycobacterium tuberculosis; experiment: Antimycobacterial activity against Mycobacterium tuberculosis My 331/88 (H37Rv) assessed as reduction in bacterial growth incubated for 14 days by microdilution method; type: functional; conditions: 336 h, time 14 day
[13] = system: Mycobacterium tuberculosis; experiment: Antimycobacterial activity against Mycobacterium tuberculosis H37Rv ATCC 27294 assessed as reduction in bacterial growth by MABA analysis; type: functional
[14] = molecular target: T1, Enoyl-[acyl-carrier-protein] reductase [NADH] (Mycobacterium tuberculosis, UniProt P9WGR1); experiment: Inhibition of Mycobacterium tuberculosis InhA using octenoyl-CoA as substrate in presence of NADH and measured for 10 mins by colorimetric assay
T1 sequence (P9WGR1 whole entry): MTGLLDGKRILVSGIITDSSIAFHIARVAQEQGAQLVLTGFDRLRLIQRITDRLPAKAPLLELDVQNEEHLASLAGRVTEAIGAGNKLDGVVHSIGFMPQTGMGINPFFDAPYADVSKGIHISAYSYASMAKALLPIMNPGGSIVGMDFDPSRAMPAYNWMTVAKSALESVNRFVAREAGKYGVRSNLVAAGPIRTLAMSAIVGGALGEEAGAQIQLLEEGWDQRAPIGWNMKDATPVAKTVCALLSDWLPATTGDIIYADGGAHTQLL

[15] = system: Mycobacterium tuberculosis; experiment: Antimycobacterial activity against Mycobacterium tuberculosis H37Rv assessed as reduction in bacterial growth; type: functional
[16] = system: Mycobacterium tuberculosis; experiment: Antimycobacterial activity against Mycobacterium tuberculosis H37Rv ATCC 27294 assessed as reduction in bacterial growth by fluorescence based MABA method; type: functional
[17] = system: Mycobacterium tuberculosis; experiment: Antimycobacterial activity against Mycobacterium tuberculosis H37Rv assessed as reduction in bacterial growth incubated for 6 days by resazurin reduction microplate assay; type: functional; conditions: 144 h, time 6 day
[18] = Aqueous solubility of the compound incubated for 3 days by shake flask method; type: physicochemical; conditions: water; time 3 day
[19] = system: Mycobacterium tuberculosis; experiment: Antimycobacterial activity against Mycobacterium tuberculosis kurono assessed as reduction in bacterial colonies incubated for 14 days by colony counting method; type: functional; conditions: 336 h, time 14 day
[20] = system: Mycobacterium tuberculosis; experiment: Antimycobacterial activity against Mycobacterium tuberculosis H37Rv assessed as reduction in bacterial growth incubated for 15 days by turbidometric method; type: functional; conditions: 360 h, time 15 day
[21] = system: Mycobacterium tuberculosis; experiment: Antimycobacterial activity against Mycobacterium tuberculosis H37Rv assessed as reduction in bacterial growth by REMA analysis; type: functional
[22] = system: Mycobacterium tuberculosis; experiment: Antimycobacterial activity against Mycobacterium tuberculosis H37Ra assessed as reduction in bacterial growth; type: functional

CCOC(=O)C1=NOC(c2ccc(N3CCN(Cc4ccccc4)CC3)cc2)C1 (stereo not drawn)
MIC90 [1]: 3.96 µM (≈ 1.56 µg/mL)

Cc1ccc2nc(-c3ccccc3)c(C(c3ccccc3)N(CC(=O)N3CCN(c4ccccn4)CC3)Cc3ccccc3)cc2c1 (stereo not drawn)
IC50 [2]: 3.98 µM

CON=C1CCC(CN2CCN(c3nc(=O)c4cc(C(F)(F)F)cc([N+](=O)[O-])c4s3)CC2)CC1 (stereo not drawn)
MIC [3]: < 0.03 µM

NNC(=O)c1ccncc1 [ISONIAZID]
MIC [1]: 10.9 µM (≈ 1.5 µg/mL) | MIC [3]: 0.06 µM (≈ 0.00823 µg/mL)

NC(=O)c1cnccn1 [PYRAZINAMIDE]
MIC [4]: 50.8 µM (≈ 6.25 µg/mL) | MIC [5]: 50.8 µM (≈ 6.25 µg/mL)

CCCCCCCCCN1CCN(c2c(F)cc3c(c2OC)C(C2CC2)=CC(C(=O)O)C3=O)CC1 (stereo not drawn)
MIC [6]: 0.25 µM (≈ 0.122 µg/mL)

COc1cc(N2CCN(c3ccc(N4C[C@H](CNC(C)=O)OC4=O)cc3F)CC2)nc2nccn12
MIC [7]: 1.03 µM (≈ 0.498 µg/mL)

Cc1cn2c(C(=O)NCc3ccc(N4CCN(c5ccc(C(F)(F)F)cn5)CC4)c(F)c3)cnc2s1
MIC [8]: 0.004 µM (≈ 0.00207 µg/mL)

CO[C@H]1/C=C/O[C@@]2(C)Oc3c(C)c(O)c4c(O)c(c(/C=N/N5CCN(C)CC5)c(O)c4c3C2=O)NC(=O)/C(C)=C\C=C\[C@H](C)[C@H](O)[C@@H](C)[C@@H](O)[C@@H](C)[C@H](OC(C)=O)[C@@H]1C [RIFAMPIN]
MIC [3]: > 48.6 µM

COc1ccc2cc(C(=O)CN3CCN(c4c(F)cc5c(=O)c(C(=O)O)cn(C6CC6)c5c4OC)CC3)c(=O)oc2c1
MIC [9]: 0.43 µM (≈ 0.248 µg/mL)

CCOC(=O)c1ccc(N2CCN(c3nccc(N4CCOc5nc([N+](=O)[O-])cn5C4)n3)CC2)cc1
MIC [10]: > 100 µM

O=C(c1ccncc1)N1CCN(c2nc3ccccc3c3ccccc23)CC1
MIC [8]: 4.23 µM (≈ 1.56 µg/mL)

O=C(CSc1nnc(N2CCN(c3cc4c(cc3F)c(=O)c(C(=O)O)cn4C3CC3)CC2)s1)c1ccc([N+](=O)[O-])cc1
MIC [1]: 0.82 µM (≈ 0.501 µg/mL)

CCOC(=O)N1CCN(CC(=O)C2C(c3ccccc3)CC(=O)C(CC)C2c2ccccc2)CC1 (stereo not drawn)
MIC [11]: 33.6 µM (≈ 16 µg/mL)

O=C(NCc1ccc(N2CCN(c3ccc(F)cc3)CC2)cc1)c1ccc([N+](=O)[O-])o1
MIC [3]: < 0.04 µM

CC1COc2c(N3CCN(C)CC3)c(F)cc3c(=O)c(C(=O)O)cn1c23 (stereo not drawn) [OFLOXACIN]
MIC [12]: 1 µM (≈ 0.361 µg/mL)

CC(C)(C)c1ccc(S(=O)(=O)N2CCN(c3nc4ccccc4c4ccccc34)CC2)cc1
MIC [8]: 3.39 µM (≈ 1.56 µg/mL)

N#Cc1ccc(Nc2nc(Oc3ncnc4ccccc34)nc(N3CCN(c4cccc(Cl)c4Cl)CC3)n2)cc1C(F)(F)F
MIC [4]: > 9.79 µM | MIC [5]: 9.79 µM (≈ 6.25 µg/mL)

O=C(CSc1nnc(N2CCN(c3cc4c(cc3F)c(=O)c(C(=O)O)cn4C3CC3)CC2)s1)c1ccc(Cl)cc1
MIC [1]: 1.67 µM (≈ 1 µg/mL)

CCOC(=O)N1CCN(CC(=O)C2C(c3cccc(F)c3)C(C)C(=O)C(C)C2c2cccc(F)c2)CC1 (stereo not drawn)
MIC [11]: 31.2 µM (≈ 16 µg/mL)

CCOC(=O)N1CCN(CC(=O)C2C(c3ccc(OC)cc3)C(C)C(=O)C(C)C2c2ccc(OC)cc2)CC1 (stereo not drawn)
MIC [11]: 29.8 µM (≈ 16 µg/mL)

CCn1cc(C(=O)O)c(=O)c2cc(F)c(N3CCN(CN4C(=O)/C(=N\c5ncc(Cc6cc(OC)c(OC)c(OC)c6)c(N)n5)c5cc(Cl)ccc54)C(C)C3)c(F)c21 (stereo not drawn)
MIC [13]: 1.91 µM (≈ 1.56 µg/mL) | MIC [10]: 1.91 µM (≈ 1.56 µg/mL)

CCOC(=O)N1CCN(CC(=O)C2C(c3ccccc3)C(C)C(=O)C(C)C2c2ccccc2)CC1 (stereo not drawn)
MIC [11]: 33.6 µM (≈ 16 µg/mL)

CCn1cc(C(=O)O)c(=O)c2cc(F)c(N3CCN(c4nnc(SCC(=O)c5ccc([N+](=O)[O-])cc5)s4)CC3)cc21
MIC [1]: 1.68 µM (≈ 1.01 µg/mL)

O=C(NCc1ccc(N2CCN(c3ccc(F)cc3F)CC2)cc1)c1ccc([N+](=O)[O-])o1
MIC [3]: < 0.04 µM

COc1ccc(N2CCN(c3ccc(CNC(=O)c4ccc([N+](=O)[O-])o4)cc3)CC2)cc1
MIC [3]: < 0.04 µM

CC(=O)NC[C@H]1CN(c2ccc(N3CCN(c4ccc5nccn5n4)CC3)c(F)c2)C(=O)O1
MIC [7]: 1.1 µM (≈ 0.499 µg/mL)

CCCCOC(=O)Nc1ccc(C(O)CN2CCN(c3ccccc3F)CC2)cc1 (stereo not drawn)
MIC [12]: 8 µM (≈ 3.32 µg/mL)

O=C(c1ccc2[nH]ccc2c1)N1CCN(C2c3ccccc3-c3ccc([N+](=O)[O-])cc32)CC1 (stereo not drawn)
IC50 [14]: 0.27 µM

COC(=O)COc1ccc2ccccc2c1CN1CCN(C/C=C/c2ccccc2)CC1
MIC [15]: 9.3 µM (≈ 4 µg/mL)

CC[C@@H](CO)NCCN[C@@H](CC)CO [ETHAMBUTOL]
MIC [12]: 1.1 µM (≈ 0.225 µg/mL)

CC1COc2c(N3CCNCC3)c(F)cc3c(=O)c(C(=O)O)cn1c23 (stereo not drawn) [DESMETHYL-OFLOXACIN]
MIC [16]: 11.7 µM and 4.55 µM

O=c1nc(N2CCN(S(=O)(=O)C3CC3)CC2)sc2c([N+](=O)[O-])cc(C(F)(F)F)cc12
MIC [17]: 0.0064 µM (≈ 0.00297 µg/mL) | solubility thermodynamic at 72 h [18]: 15.9 µM (≈ 7.39 µg/mL)

CC(C)(c1ccc(OCc2ccc(C(F)(F)F)cc2)cc1)N1CCN(c2ccc(OC[C@H]3CCn4cc([N+](=O)[O-])nc4O3)cc2)CC1
MIC [19]: 0.001 µM (≈ 0.000652 µg/mL)

Cc1cccc(-c2nc(CN3CCN(c4ccnc5cc(-c6cccnc6)ccc45)CC3)no2)c1C
MIC [20]: 0.52 µM (≈ 0.248 µg/mL)

CCOC(=O)N1CCN(CC(=O)C2C(c3ccc(Cl)cc3)C(C)C(=O)C(C)C2c2ccc(Cl)cc2)CC1 (stereo not drawn)
MIC [11]: 29.3 µM (≈ 16 µg/mL)

O=c1nc(N2CCN(CC3CCCCC3)CC2)sc2c([N+](=O)[O-])cc(C(F)(F)F)cc12 [MACOZINONE]
MIC [17]: 0.0004 µM (≈ 0.000183 µg/mL) | MIC [21]: < 0.42 µM

O=C(CCCc1cc2ccccc2[nH]1)N1CCN(c2nc3ccccc3c3ccccc23)CC1
MIC [8]: 3.48 µM (≈ 1.56 µg/mL)

COc1c(N2CCNC(C)C2)c(F)cc2c(=O)c(C(=O)O)cn(C3CC3)c12 (stereo not drawn) [GATIFLOXACIN]
MIC [9]: 0.66 µM (≈ 0.248 µg/mL)

CCON=C1CCC(CN2CCN(c3nc(=O)c4cc(C(F)(F)F)cc([N+](=O)[O-])c4s3)CC2)CC1 (stereo not drawn)
MIC [3]: < 0.03 µM

O=C(NCc1ccc(N2CCN(Cc3ccccc3)CC2)cc1)c1ccc([N+](=O)[O-])o1
MIC [22]: 0.014 µM (≈ 0.00589 µg/mL) | MIC [15]: 0.014 µM (≈ 0.00589 µg/mL)
